Source: US20250064707A1, “PEPTIDE HAVING ANTI-AGING ACTIVITY, AND USE THEREOF” (CAREGEN CO., LTD., priority 2021, published 2025)

Experiments:
[1] = tested on: NIH3T3 cells (mouse fibroblast cell line); assay: RT-PCR expression of ECM component genes (Col1a1, fibronectin, elastin) in fibroblasts; assay type: cell-based; settings: peptide 10, 50, 100 μM, 24 hours, RT-PCR vs GAPDH
Procedure: First, NIH3T3 cells (mouse fibroblast cell line) were seeded in a 6-well plate at a cell density of 5×10^5 cell/well, and then the cells were cultured in DMEM medium containing 10% fetal bovine serum (FBS) for 24 hours. The cultured cells were washed once with serum free DMEM medium, and the peptide of the present invention was mixed in 1 mL of the serum free DMEM medium at each of concentrations of 10, 50, and 100 μM, and dispensed into the cells. A positive control (PC) was treated with 100 nM of bFGF instead of the above peptide. The cells were cultured in a CO2 incubator at 37° C. for 24 hours.
The cultured cells were washed twice with PBS, and RNA was extracted from the cells using easy blue (iNtRON, Cat. No.: 17061, Korea). The extracted RNA was subjected to RT-PCR using an RNA kit (enzynomics, Cat. No.: P581T, Korea). The sequences of the primers of collagen (Col1a1), fibronectin, and elastin used in RT-PCR and the sequence of the primer of GAPDH used to compare the total RNA amount of each treatment group are shown in [Table 2].

HaCaT cells [2] = assay: Western blot of apoptotic-inducing factors (cleaved PARP-1, cleaved Caspase-3) increased by UVB irradiation; assay type: cell-based, human; settings: peptide 10, 50, 100 μM, 15 J/cm^2 UVB, 24 hours
Procedure: Expression of the apoptotic-inducing factors increases when irradiated with UV. Therefore, it was confirmed whether the photoaging phenomenon of the cells was inhibited and the damaged cells were regenerated by confirming whether the increased expression levels of the apoptotic-inducing factors such as cleaved PARP-1 and cleaved Caspase-3 decreased again when treated with the peptide of the present invention.
First, HaCaT cells were seeded in a 6-well plate at a cell density of 5×10^5 cell/well, and then the cells were cultured in DMEM medium containing 10% fetal bovine serum (FBS) for 24 hours. The cultured cells were washed once with serum free DMEM medium, and then the peptide of the present invention was mixed in 1 mL of the serum free DMEM medium at each of concentrations of 10, 50, and 100 μM, and dispensed into the cells. A positive control (PC) was treated with 2.5 mM of N-acetylcysteine (NaC) instead of the above peptide.
The cells were cultured in a CO2 incubator at 37° C. for 1 hour, the medium of the cultured cells was transferred to a tube, 1 mL of PBS was added, and then irradiation was performed with 15 J/cm^2 of UVB using a UV irradiator (VILBER LOURMAT, Cat No.: 3102-BSU, France). After removing PBS, 900 μL of the medium transferred to the tube was added again, and culture was performed in a CO2 incubator at 37° C. for 24 hours. […]

NIH3T3 cells = assay: Collagen ELISA and hyaluronic acid ELISA of culture medium, fibroblasts; assay type: cell-based, mouse; settings: peptide 50 μM, 100 μM, 72 hours
Procedure: (§1) First, NIH3T3 cells and HaCaT cells (human keratinocyte cell line) were seeded in a 24-well plate at a cell density of 1×10^4 cell/well, and then the cells were cultured in DMEM medium containing 10% fetal bovine serum (FBS) for 24 hours. The cultured cells were washed once with serum free DMEM medium, and the peptide of the present invention was mixed in 2 mL of the serum free DMEM medium at each of concentrations of 50 μM, 100 μM, and 5 ng/ml, and dispensed into three wells by 500 μL per condition. The NIH3T3 cells were treated with 5 ng/ml of TGF-β1 instead of the above peptide as a positive control (PC). The HaCaT cells were treated with 100 nM of IGF-1 instead of the above peptide as a PC. The cells were cultured in a CO2 incubator at 37° C. for 72 hours.
(§2) The medium of the cultured NIH3T3 and HaCaT cells was centrifuged to settle a suspended matter, a supernatant was transferred to an e-tube, and then each of ELISA (abcam, Cat No.: ab210579, UK) and hyaluronic acid (HA) ELISA (ECHELON biosciences, Cat No.: K-1200, USA) was performed using the same.

[3] = tested on: HaCaT cells (human keratinocyte cell line); assay: Collagen ELISA and hyaluronic acid ELISA of culture medium, keratinocytes; assay type: cell-based; settings: peptide 50 μM, 100 μM, 72 hours
Procedure: as §1, §2

HaCaT cells [4] = assay: RT-PCR expression of SIRT1 and AQP3 decreased by UVB irradiation; assay type: cell-based, human; settings: peptide 10, 50, 100 μM, 15 J/cm^2 UVB, 24 hours
Procedure: The expression of genes related to the skin barrier strengthening function is inhibited when irradiated with UV.
First, HaCaT cells were seeded in a 6-well plate at a cell density of 3×10^5 cell/well, and then the cells were cultured in DMEM medium containing 10% fetal bovine serum (FBS) for 24 hours. The cultured cells were washed once with serum free DMEM medium, and then the peptide of the present invention was mixed in 1 mL of the serum free DMEM medium at each of concentrations of 10, 50, and 100 μM, and dispensed into the cells. A positive control (PC) was treated with 2.5 mM of N-acetylcysteine (NaC) instead of the above peptide. The cells were cultured in a CO2 incubator at 37° C. for 1 hour.
The cultured cells were washed twice with PBS, 1 ml of PBS was added, and irradiation was performed with 15 J/cm^2 of UVB using a UV irradiator (VILBER LOURMAT, Cat No.: 3102-BSU, France). After removing PBS, 900 μL of the medium transferred to the tube was dispensed, and culture was performed in a CO2 incubator at 37° C. for 24 hours. The cultured cells were washed twice with PBS, and then RNA was extracted from the cells using easy blue (iNtRON, Cat. No.: 17061, Korea). The extracted RNA was subjected to an RT reaction using an RNA kit (enzynomics, Cat. No.: P581T, Korea). Thereafter, RT-PCR was performed using a PCR kit (enzynomics, Cat. No.: R581T, Korea). […]

HaCaT cells [5] = assay: RT-PCR expression of skin barrier genes (SIRT1, AQP3) in keratinocytes; assay type: cell-based, human; settings: peptide 10, 50, 100 μM, 24 hours
Procedure: First, HaCaT cells were seeded in a 6-well plate at a cell density of 3×10^5 cell/well, and then the cells were cultured in DMEM medium containing 10% fetal bovine serum (FBS) for 24 hours. The cultured cells were washed once with serum free DMEM medium, and then the peptide of the present invention was mixed in 1 mL of the serum free DMEM medium at each of concentrations of 10, 50, and 100 μM, and dispensed into the cells. A positive control (PC) was treated with 100 nM of EGF instead of the above peptide. The cells were cultured in a CO2 incubator at 37° C. for 24 hours.
The cultured cells were washed twice with PBS, and then RNA was extracted from the cells using easy blue (iNtRON, Cat. No.: 17061, Korea). The extracted RNA was subjected to RT reaction using a kit (enzynomics, Cat. No.: RT200, Korea). Thereafter, RT-PCR was performed using a PCR kit (enzynomics, Cat. No.: R581T, Korea). The sequences of the primers of SIRT1 and AQP3 used in RT-PCR are shown in [Table 3]. The sequence of the primer of GAPDH used to compare the total RNA amount of each treatment group is shown in [Table 2].

HaCaT cells [6] = assay: Intracellular reactive oxygen species after UVB irradiation (DCFH-DA, FACS); assay type: cell-based, human; settings: peptide 10, 50, 100 μM, 1 hour before 15 J/cm^2 UVB, 24 hours after
Procedure: The reactive oxygen species level increases when UV is irradiated. Therefore, it was confirmed whether the reactive oxygen species level decreased again and the aging phenomenon caused by oxidative stress in cells was inhibited when treated with the peptide of the present invention.
First, HaCaT cells were seeded in a 6-well plate at a cell density of 5×10^5 cell/well, and then the cells were cultured in DMEM medium containing 10% fetal bovine serum (FBS) for 24 hours. The cultured cells were washed once with serum free DMEM medium, and then the peptide of the present invention was mixed in 1 mL of the serum free DMEM medium at each of concentrations of 10, 50, and 100 μM, and dispensed into the cells. A positive control (PC) was treated with 25 μM of Trolox instead of the above peptide.
The cells were cultured in a CO2 incubator at 37° C. for 1 hour. The medium of the cultured cells was transferred to a tube, 1 ml of PBS was added, and irradiation was performed with 15 J/cm^2 of UVB using a UV irradiator (VILBER LOURMAT, Cat No.: 3102-BSU, France). After removing PBS, 900 μL of the medium transferred to the tube was dispensed, and culture was performed in a CO2 incubator at 37° C. for 24 hours. […] After centrifugation, the cells were washed with PBS, and a fluorescence value was measured through FACS.

Sequence: EYIPNRVCRR [SEQ ID NO: 1]
- expression of the Col1a1 gene [1]: gradually increased as a concentration of the peptide increased
- expression of the elastin gene [1]: gradually increased as a concentration of the peptide increased
- expression of the fibronectin gene [1]: gradually increased as a concentration of the peptide increased
- expression of Cleaved Caspase-3 increased by UV irradiation (HaCaT cells [2]): inhibited the expression
- expression of Cleaved PARP-1 increased by UV irradiation (HaCaT cells [2]): inhibited the expression
- amount of collagen protein (NIH3T3 cells; ELISA of medium (FIG. 2A)): gradually increased as a concentration of the peptide increased
- amount of hyaluronic acid (NIH3T3 cells; HA ELISA of medium (FIG. 2A)): gradually increased as a concentration of the peptide increased
- amount of collagen protein ([3]; ELISA of medium (FIG. 2B)): gradually increased as a concentration of the peptide increased
- amount of hyaluronic acid ([3]; HA ELISA of medium (FIG. 2B)): gradually increased as a concentration of the peptide increased
- mRNA level of AQP3 decreased by UV irradiation (HaCaT cells [4]): increased again
- mRNA level of SIRT1 decreased by UV irradiation (HaCaT cells [4]): increased again
- mRNA level of AQP3 (HaCaT cells [5]): increased
- mRNA level of SIRT1 (HaCaT cells [5]): increased
- intracellular reactive oxygen species level increased by UV irradiation (HaCaT cells [6]): decreased
